Data taken from publication PMC7486940, “Pre-symptomatic Caspase-1 inhibitor delays cognitive decline in a mouse model of Alzheimer disease and aging” (Nature Communications, 2020).

Columns and labels:
J20 mice = assay: open field; assay type: in vivo, mouse; conditions: 50 mg/kg IP 3x/week for 1 month, 4- to 20-week WO
Description: (§1) VX-765 (Adooq Bioscience, Irvine, CA, USA) was dissolved 5 mg • ml^−1 in 20% cremophor in dH2O[60] (Sigma-Aldrich, ON, Canada) and administered IPWT and J20 mice received three injections per week of either 50 mg • kg^−1 VX-765 or 20% cremophor vehicle for 4 weeks between 2 and 3 months of age. Mice were longitudinally followed starting 4 weeks after the last injection [4-week washout (WO)], then every other month at 12- and 20-week WO (6 and 8 months of age, respectively). Intermediate 8- and 16-week WO periods were also looked at with a smaller number of mice. After each WO period, animals were randomly chosen, independent of behavioural performance, for sacrifice and assigned to either histological or biochemical analysis (Fig. 2a).
(§2) Open-field and novel object recognition (NOR) were measured at all WO periods. The Barnes maze was assessed at 12- and 20-week WO. Open field: Mice were placed in an open-field chamber, composed of a plexiglass box with no ceiling and white floor, and allowed to explore for 5 min. NOR: Mice were pre-exposed to two identical objects in the open-field chamber for 5 min. Two hours after pre-exposure, mice were placed back into the chamber and exposed to one familiar object and one novel object for 5 min (test phase). Mice were exposed to a specific object only once across multiple test sessions. Barnes maze: Learning acquisition (days 1–4)—each mouse was trained to find the target and enter the escape box within 180 s. Four trials per day, ~15 min apart, were performed for 4 consecutive days. Probe (day 5)—a single, 90 s trial was performed on each mouse to measure primary latency and number of errors to reach the blocked target. Target hole location was changed between the two separate test sessions. Behavioural scoring was blinded to mouse genotype and treatment.

WT mice = assay: open field; assay type: in vivo, mouse; conditions: 50 mg/kg IP 3x/week for 1 month
Description: as §1, §2

Iba1-positive microglia = Iba1-positive microglia quantification and morphology (immunohistochemistry); assay type: in vivo, mouse
Description: as §1
Mice for immunohistochemistry were isoflurane anesthetized and perfused with ice-cold 4% paraformaldehyde in 0.1 M PBS (Sigma-Aldrich). Brains were post-fixed overnight in 10% neutral-buffered formalin (ThermoFisher Scientific, ON, Canada) and transferred to 70% ethanol for paraffin embedding and sectioning at 4 μm. Tissue slides underwent heat-induced antigen retrieval with citrate or EDTA buffer. Immunostaining was performed using the Dako Autostainer Plus slide processor and EnVision Flex system (Dako, ON, Canada). Sections were peroxidase treated, blocked in Serum-Free Protein Block, and immunostained with the following antibodies: 1:2000 rabbit anti-Iba1 (Wako, VA, USA), 1:500 rat anti-CD68 (clone FA-11, Bio-Rad, Hercules, CA, USA), 1:8000 rabbit anti-GFAP (Dako) and 1:2000 rabbit anti-Aβ1-40 (F25276, laboratory developed). CD68 antibody required an additional rabbit anti-rat IgG/HRP secondary reagent (Dako) incubation. […] Sections were digitally scanned with MIRAX SCAN (Zeiss, ON, Canada) and used for subsequent analyses.
Iba1-positive microglia were quantified using a modified version of an area-specific counting frame. The number of Iba1-positive cells per mm^3 in the anterior CA1 region and cortex was estimated across four sections, spaced 60 μm apart. Microglial activation level was determined based on morphological measurements[19],[41]. Aβ1-40 and GFAP immunostaining density was measured across four sections using ImageJ software (NIH, Bethesda, MD, USA). Quantification was blinded to treatment and genotype.

[1] = parameters: method as in PMID 30254377; conditions: cited from earlier work
alpha-synuclein = test system: alpha-synuclein; parameters: method as in PMID 27482083; conditions: in vitro; cited from earlier work
in vivo = conditions: female, C57BL/6J, mouse, ip, 50 mg/kg; for half-life: Half-life (t1/2) in plasma; for MRT inf: MRTinf in plasma
Description: Plasma, whole brain and CSF concentrations of VX-765 and its active metabolite, VRT-043198, were determined by LC-MS/MS at Paraza Pharma (Montreal, QC, Canada). Fourteen C57BL/6J female mice received a single IP dose of 50 mg · kg^−1 VX-765 and 2 mice per time point were euthanized at 0.25, 0.5, 1, 3, 6, 8 and 24 h post-injection. Mice were isoflurane anesthetized to collect CSF and perform a cardiac puncture followed by whole body perfusion with PBS. Plasma samples were extracted 1:1 in spiking solution and internal standard solution containing 0.1 μM glyburide in acetonitrile. Brain and CSF samples were extracted 1:1 in spiking solution and internal standard solution containing 0.2 μM labetalol in 50:50 methanol:acetonitrile. Samples were centrifuged at 4000 × g for 10 min at 4 °C, the plasma supernatant diluted 1:1 and the brain and CSF supernatant diluted 1:2 in H2O, and 5 μl was injected into a Quantis LC-MS/MS system for analysis.

With CCO[C@@H]1OC(=O)C[C@@H]1NC(=O)[C@@H]1CCCN1C(=O)[C@@H](NC(=O)c1ccc(N)c(Cl)c1)C(C)(C)C [VX-765, (S)-1-((S)-2-{[1-(4-amino-3-chloro-phenyl)-methanoyl]-amino}-3,3-dimethyl-butanoyl)-pyrrolidine-2-carboxylic acid ((2R,3S)-2-ethoxy-5-oxo-tetrahydro-furan-3-yl)-amide] the “open field hyperactivity (distance travelled, quadrant entries)” value (J20 mice) was “attenuated hyperactivity in J20 mice only at 4-week WO”, the open field activity (WT mice; WT, all WO periods) was “had no effect on WT mice at any WO period” and the “open field locomotor activity, time moving, thigmotaxis” value (WT mice; between vehicle and VX-765 treatment) was “no differences in locomotor activity, time moving or thigmotaxis”. For the same compound, the “type III, amoeboid-appearing, microglia” value (Iba1-positive microglia; J20, 20-week WO) was “significantly higher in vehicle- and VX-765-treated J20 mice at 20-week WO”, the “duration of reduced microglial activation” value (Iba1-positive microglia; J20 cortex) was ≤ 5 months and the “duration of reduced microglial activation” value (Iba1-positive microglia; J20 hippocampus) was “up to 4 months”. The “microglial morphological profile (type I resting / type II activated)” value (Iba1-positive microglia; J20 hippocampus and cortex) was “reverted the profile in J20 mice back to a near WT profile at 4-week WO, but it slowly shifted from a resting to an activated state morphologically similar to vehicle-treated J20 mice from 12-week WO onwards”, the Iba1-positive microglia numbers (Iba1-positive microglia; J20 hippocampus and cortex, all WO periods) was “prevented this increase, normalizing Iba1-positive numbers to near WT levels, although numbers did not reach significance in the hippocampus at 8- and 20-week WO” and the “type IV microglia” value (Iba1-positive microglia; J20 hippocampus, 20-week WO) was “elevated in the hippocampus of VX-765-treated J20 mice at 20-week WO”. For the same compound, the “concentration in the J20 brain” value ([1]; 50 mg/kg dose of VX-765, carotid infusion, J20 mice) was 2000 to 5000 nM, the “blood–brain barrier permeability” value [1] was “blood–brain barrier permeable” and the alpha-synuclein toxicity (alpha-synuclein) was “protect against alpha-synuclein toxicity”. The concentration at 0.25 h (in vivo; CSF concentration, Mean) was 330 nM, the concentration at 0.5 h (in vivo; CSF concentration, Mean) was 620 nM and the concentration at 1 h (in vivo; CSF concentration, Mean) was 80 nM. For the same compound, the concentration at 3 h (in vivo; CSF concentration, Mean) was 60 nM, the concentration at 6 h (in vivo; CSF concentration, Mean) was 60 nM and the concentration at 8 h (in vivo; CSF concentration, Mean) was 100 nM. The concentration at 0.25 h (in vivo; CSF concentration, Mouse 1) was 210 nM, the concentration at 0.5 h (in vivo; CSF concentration, Mouse 1) was 70 nM and the concentration at 1 h (in vivo; CSF concentration, Mouse 1) was 60 nM. It also gave a concentration at 3 h (in vivo; CSF concentration, Mouse 1) of 70 nM, a concentration at 6 h (in vivo; CSF concentration, Mouse 1) of 50 nM and a concentration at 8 h (in vivo; CSF concentration, Mouse 1) of 70 nM. For the same compound, the concentration at 0.25 h (in vivo; CSF concentration, Mouse 2) was 450 nM, the concentration at 0.5 h (in vivo; CSF concentration, Mouse 2) was 1170 nM and the concentration at 1 h (in vivo; CSF concentration, Mouse 2) was 100 nM. For the same compound, the concentration at 3 h (in vivo; CSF concentration, Mouse 2) was 40 nM, the concentration at 6 h (in vivo; CSF concentration, Mouse 2) was 60 nM and the concentration at 8 h (in vivo; CSF concentration, Mouse 2) was 130 nM. For the same compound, the Cmax (in vivo; Cmax in CSF, Mean) was 690 nM, the Cmax (in vivo; Cmax in CSF, Mouse 1) was 210 nM and the Cmax (in vivo; Cmax in CSF, Mouse 2) was 1170 nM. The Cmax (in vivo; Cmax in brain, Mean) was 160 nM, the Cmax (in vivo; Cmax in brain, Mouse 1) was 240 nM and the Cmax (in vivo; Cmax in brain, Mouse 2) was 90 nM. It also gave a Cmax (in vivo; Cmax in plasma, Mean) of 1590 nM, a Cmax (in vivo; Cmax in plasma, Mouse 1) of 1540 nM and a Cmax (in vivo; Cmax in plasma, Mouse 2) of 1630 nM. The half-life (in vivo; Mean) was 192 min, the half-life (in vivo; Mouse 1) was 193 min and the half-life (in vivo; Mouse 2) was 190 min. It also gave an MRT inf (in vivo; Mean) of 313 min, an MRT inf (in vivo; Mouse 1) of 288 min and an MRT inf (in vivo; Mouse 2) of 338 min. The Tmax (in vivo; Tmax in CSF, Mean) was 22.8 min, the Tmax (in vivo; Tmax in CSF, Mouse 1) was 15 min and the Tmax (in vivo; Tmax in CSF, Mouse 2) was 30 min. For the same compound, the Tmax (in vivo; Tmax in brain, Mean) was 22.8 min, the Tmax (in vivo; Tmax in brain, Mouse 1) was 15 min and the Tmax (in vivo; Tmax in brain, Mouse 2) was 30 min. For the same compound, the Tmax (in vivo; Tmax in plasma, Mean) was 45 min, the Tmax (in vivo; Tmax in plasma, Mouse 1) was 30 min and the Tmax (in vivo; Tmax in plasma, Mouse 2) was 60 min. For the same compound, the concentration at 0.25 h (in vivo; brain concentration, Mean) was 160 nM, the concentration at 0.5 h (in vivo; brain concentration, Mean) was 70 nM and the concentration at 0.25 h (in vivo; brain concentration, Mouse 1) was 240 nM. The concentration at 0.5 h (in vivo; brain concentration, Mouse 1) was 50 nM, the concentration at 0.25 h (in vivo; brain concentration, Mouse 2) was 70 nM and the concentration at 0.5 h (in vivo; brain concentration, Mouse 2) was 90 nM. The concentration at 0.25 h (in vivo; plasma concentration, Mean) was 290 nM, the concentration at 0.5 h (in vivo; plasma concentration, Mean) was 1010 nM and the concentration at 1 h (in vivo; plasma concentration, Mean) was 1250 nM. It also gave a concentration at 3 h (in vivo; plasma concentration, Mean) of 400 nM, a concentration at 6 h (in vivo; plasma concentration, Mean) of 330 nM and a concentration at 8 h (in vivo; plasma concentration, Mean) of 320 nM. For the same compound, the concentration at 24 h (in vivo; plasma concentration, Mean) was 10 nM, the concentration at 0.25 h (in vivo; plasma concentration, Mouse 1) was 310 nM and the concentration at 0.5 h (in vivo; plasma concentration, Mouse 1) was 1540 nM. It also gave a concentration at 1 h (in vivo; plasma concentration, Mouse 1) of 870 nM, a concentration at 3 h (in vivo; plasma concentration, Mouse 1) of 450 nM and a concentration at 6 h (in vivo; plasma concentration, Mouse 1) of 430 nM. It also gave a concentration at 8 h (in vivo; plasma concentration, Mouse 1) of 200 nM, a concentration at 24 h (in vivo; plasma concentration, Mouse 1) of 8 nM and a concentration at 0.25 h (in vivo; plasma concentration, Mouse 2) of 270 nM. For the same compound, the concentration at 0.5 h (in vivo; plasma concentration, Mouse 2) was 490 nM, the concentration at 1 h (in vivo; plasma concentration, Mouse 2) was 1630 nM and the concentration at 3 h (in vivo; plasma concentration, Mouse 2) was 350 nM. It also gave a concentration at 6 h (in vivo; plasma concentration, Mouse 2) of 220 nM, a concentration at 8 h (in vivo; plasma concentration, Mouse 2) of 450 nM and a concentration at 24 h (in vivo; plasma concentration, Mouse 2) of 14 nM.
